Values quoted from earlier work, collected in patent US20160144033A1, “CONCENTRATED ACETAMINOPHEN SOLUTION” (Emphascience, Inc., priority 2014, published 2016).

Settings: room temperature

## CC(=O)Nc1ccc(O)cc1 [acetaminophen]
  solubility of acetaminophen in water: ca. 13 mg per ml
